The text below walks through data of PubChem BioAssay (NCI).

Test systems include A498 renal; CAKI-1 renal; HOP-62 NSCLC; K-562 leukemia; M14 melanoma; RPMI-8226 leukemia; SF-539 CNS; SK-OV-3 ovarian; HT29 colon; OVCAR-8 ovarian.
Test in all cases: growth of human tumour cells (NCI), 48 h

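How tested: cells in 96-well plates exposed to compound for 48 hours at five concentrations. GI50 is the concentration that inhibits growth by half. TGI marks complete inhibition of growth.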

For the molecule `CCOC(=O)C(=O)N1C(C)=C(C(=O)OCC)CC(C(=O)OCC)=C1C`, the TGI with A498 renal, with CAKI-1 renal, with HOP-62 NSCLC, in the assay on K-562 leukemia, with M14 melanoma and with RPMI-8226 leukemia was over 100 µM each time. In addition, the TGI in the assay on SF-539 CNS and in the assay with SK-OV-3 ovarian was over 100 µM throughout.
Take `C#CC(C)(C)Oc1cc(O)c2c(=O)c3ccccc3n(C)c2c1`: the TGI in the assay with A498 renal, in the assay with CAKI-1 renal, with HOP-62 NSCLC, in the assay on HT29 colon, with K-562 leukemia and with M14 melanoma was over 100 µM in each case. Besides, the TGI was over 100 µM in the assay with OVCAR-8 ovarian, 58.1 µM in the assay with SF-539 CNS and over 100 µM with SK-OV-3 ovarian.
On to `O=[N+]([O-])c1ccc(NSc2ccccc2)cc1`, for which the TGI was over 100 µM with HOP-62 NSCLC; over 100 µM in the assay with K-562 leukemia; 64.5 µM in the assay on M14 melanoma; 45.6 µM with OVCAR-8 ovarian; 44.6 µM with SF-539 CNS; 87.3 µM in the assay with SK-OV-3 ovarian.
For the molecule `CC(=O)/C(=C/n1c(=S)sc2ccccc21)C(=O)Nc1ccccc1C`, the TGI in the assay with A498 renal, in the assay on CAKI-1 renal, in the assay with HOP-62 NSCLC, in the assay with HT29 colon, in the assay on M14 melanoma and in the assay with OVCAR-8 ovarian was over 100 µM in each case. Also, the TGI in the assay with SF-539 CNS and in the assay with SK-OV-3 ovarian was over 100 µM throughout.
For the molecule `COC(=O)C(CC(=O)c1cc2c(cc1I)OCO2)Cc1cc(OC)c(OC)c(OC)c1I` (stereo unspecified), the TGI with CAKI-1 renal, in the assay on HOP-62 NSCLC, in the assay on HT29 colon, in the assay on K-562 leukemia, with OVCAR-8 ovarian and in the assay with RPMI-8226 leukemia was over 100 µM each time. The TGI in the assay with SF-539 CNS and in the assay with SK-OV-3 ovarian was over 100 µM in each case.
As to `OCc1c(-c2cccc3ccccc23)sc(-c2cccc3ccccc23)c1CO`, the TGI with HOP-62 NSCLC is 26.3 µM; with HT29 colon, 31.5 µM; in the assay with K-562 leukemia, 31.3 µM; with M14 melanoma, 28.9 µM; with OVCAR-8 ovarian, 25.7 µM; in the assay on RPMI-8226 leukemia, 43.7 µM. Further, the TGI in the assay with SF-539 CNS amounted to 28.8 µM; in the assay with SK-OV-3 ovarian it was 29.3 µM.
With `COC(=O)[C@@H](C)C[C@H](Cc1ccccc1)NC(=O)c1nc([C@@H](C[C@H](C(C)C)N(C)C(=O)[C@@H](NC(=O)[C@H]2CCCN2C)C(C)C)OC(C)=O)sc1C`, the GI50 in the assay with A498 renal was under 0.0025 µM; in the assay on HOP-62 NSCLC, 0.00618 µM; with K-562 leukemia, under 0.0025 µM; in the assay on OVCAR-8 ovarian, under 0.0025 µM; with RPMI-8226 leukemia, under 0.0025 µM; in the assay on SF-539 CNS, 0.00339 µM. The GI50 in the assay with SK-OV-3 ovarian was under 0.0025 µM. Also, the TGI in the assay on A498 renal is 0.00808 µM; with HOP-62 NSCLC, over 25 µM; in the assay on K-562 leukemia, over 25 µM; in the assay with OVCAR-8 ovarian it was over 25 µM; in the assay with RPMI-8226 leukemia it was over 25 µM; in the assay with SF-539 CNS it was 0.201 µM. In the assay on SK-OV-3 ovarian, the TGI was over 25 µM.
Take `CC(=O)CC(=O)c1cc2c(=O)oc(C)cc2oc1=O`: the TGI in the assay on CAKI-1 renal, in the assay on HOP-62 NSCLC, in the assay on HT29 colon, with K-562 leukemia, in the assay on M14 melanoma and with OVCAR-8 ovarian was over 37.5 µM each time. Also, the TGI in the assay on RPMI-8226 leukemia, in the assay with SF-539 CNS and with SK-OV-3 ovarian was over 37.5 µM throughout.
Turning to `CCCCCCCCCCCCCCC1OC(=O)c2ccccc21` (stereo unspecified), the TGI in the assay on A498 renal, with HOP-62 NSCLC, with HT29 colon, in the assay with K-562 leukemia, with M14 melanoma and in the assay on OVCAR-8 ovarian was over 100 µM in each case. The TGI in the assay with RPMI-8226 leukemia, in the assay with SF-539 CNS and with SK-OV-3 ovarian was over 100 µM each time.
In the case of `CCOC(=O)c1c(N)n(-c2ccccc2)c(=S)n(-c2ccccc2)c1=O`, the TGI with HT29 colon, with K-562 leukemia, with M14 melanoma, in the assay on OVCAR-8 ovarian and in the assay with RPMI-8226 leukemia was over 100 µM throughout.
Regarding `N#Cc1nc(-c2ccc(F)cc2)oc1S(=O)(=O)N1CCOCC1`, the GI50 with A498 renal is 15.6 µM; with CAKI-1 renal, 2.12 µM; in the assay on HOP-62 NSCLC it was 10.8 µM; with HT29 colon, 3.11 µM; in the assay on K-562 leukemia, 1.7 µM; in the assay on OVCAR-8 ovarian, 4.71 µM. Moreover, the GI50 was 1.55 µM in the assay on RPMI-8226 leukemia, 1.88 µM in the assay with SF-539 CNS and 23.4 µM in the assay on SK-OV-3 ovarian. Besides, the TGI was 32 µM in the assay on A498 renal; 5.62 µM in the assay with CAKI-1 renal; 37.9 µM with HOP-62 NSCLC; over 100 µM with HT29 colon; 10.9 µM with K-562 leukemia; 30.2 µM in the assay with OVCAR-8 ovarian. For the same molecule, the TGI in the assay on RPMI-8226 leukemia came to 4.49 µM; with SF-539 CNS, 4.02 µM; in the assay on SK-OV-3 ovarian, 86.6 µM.
For the molecule `O=S(=O)(O)C(O)/C=C/c1ccccc1` (stereo unspecified), the TGI in the assay on A498 renal, in the assay with CAKI-1 renal, in the assay on HOP-62 NSCLC, in the assay on HT29 colon, in the assay with K-562 leukemia and in the assay with M14 melanoma was over 100 µM each time. Besides, the TGI with OVCAR-8 ovarian and with SK-OV-3 ovarian was over 100 µM throughout.
For `CC(C)(C)C1=NC(S)NC(CCC(=O)Nc2ccccc2[N+](=O)[O-])=C1` (stereo unspecified), the TGI with CAKI-1 renal, with HOP-62 NSCLC, in the assay with HT29 colon, in the assay on K-562 leukemia, with M14 melanoma and in the assay with OVCAR-8 ovarian was over 100 µM each time. Moreover, the TGI in the assay on SF-539 CNS and in the assay on SK-OV-3 ovarian was over 100 µM throughout.
On to `S=C1NCCN1C1=Nc2ccccc2CO1`, for which the GI50 with CAKI-1 renal, in the assay with HOP-62 NSCLC, in the assay on HT29 colon, with K-562 leukemia, in the assay on M14 melanoma and with OVCAR-8 ovarian was over 100 µM each time. The GI50 in the assay on RPMI-8226 leukemia, in the assay on SF-539 CNS and in the assay on SK-OV-3 ovarian was over 100 µM throughout. For the same molecule, the TGI in the assay with CAKI-1 renal, in the assay on HOP-62 NSCLC, with HT29 colon, with K-562 leukemia, in the assay on M14 melanoma and in the assay with OVCAR-8 ovarian was over 100 µM each time. Also, the TGI in the assay with RPMI-8226 leukemia, with SF-539 CNS and with SK-OV-3 ovarian was over 100 µM in each case.
